From patent US9872928B2, “Diagnostic agent for therapeutic effect on cancer” (HAMAMATSU PHOTONICS K.K., priority 2013, dated 2018)

Legend:
[1] = system: mitochondria Complex-1; experiment: Evaluation of binding affinity with respect to mitochondria Complex-1 (displacement of [3H]dihydrorotenone tracer from mitochondrial fraction); design: species or system rat (brain) and bull (heart); conditions: FIG. 1
Protocol: A dose-response curve of each of a TEST substance and a positive substance was created, and a concentration (IC50 value) at which the TEST substance and the positive substance suppress 50% of bonding between a tracer and mitochondrial Complex-1 (receptor) and an absolute inhibition constant (Ki) were calculated. As the TEST substance, [^18F]BMS-747158-02 (2-tert-butyl-4-chloro-5-[4-(2-fluoro-ethoxymethyl)-benzyloxy]-2H-pyri dazin-3-one, hereinafter also referred to as “BMS”), BCPP-EF, BCPP-BF, BCPP-PF, BCPP-EM, and BMS-P were used. The details will be described below.
An animal tissue was weighed (wet weight), a homogenization buffer solution (10 mmol/L Tris-HCl buffer solution (pH, 7.40) of 250 mmol/L sucrose, 1 mmol/L succinic acid, and 0.2 mmol/L EDTA) was added in an amount twice the amount of the animal tissue, and the mixture was homogenized under ice cooling. Thereafter, the homogenized suspension solution was centrifuged (1200×g, 4° C., 20 minutes). The supernatant was collected and centrifuged (26000×g, 4° C., 15 minutes). […] The protein concentration of the mitochondrial fraction was measured using BCA Protein Assay Reagent (manufactured by Pierce Companies). […]
Measurement was performed according to the following order. Two samples were prepared for each concentration, and each sample was measured three times. […]

[2] = system: SCCVII cells tumor tissue; experiment: Judgment of effect of cancer therapy using PET measurement in cancer-bearing mice after X-ray irradiation; format: in vivo, mouse
Protocol: When the tumor volume reached about 100 mm^3, a cancer therapy using irradiation with an X-ray was performed to a tumor site of a mouse at a dose ratio of 1.2 Gy/minute using an apparatus which can perform irradiation with an X-ray having an energy of 250 keV (Hitachi Power Solutions MBR-1520R-3). As conditions of irradiation with X-ray, four conditions of non-irradiation (0 Gy, control), 6 Gy, 15 Gy, and 30 Gy were set. Also after the irradiation treatment, the tumor volume was regularly measured according to the above method.
Two days and seven days after irradiation with X-ray, a mouse with a tumor tissue (cancer-bearing mouse) was anesthetized by isoflurane gas. Thereafter, four mice were fixed at one time in a gantry of an animal PET camera (HAMAMATSU SHR-38000). For absorption correction, transmission measurement was performed using a ^68Ge-^68Ga calibration-ray source for 15 minutes. Thereafter, about 5 MBq/0.2 mL of [^18F]BCPP-EF was administered into a tail vein of a mouse, and dynamic emission measurement was performed for 60 minutes. FIG. 3 illustrates a PET image showing an effect of the radiation therapy in the tumor tissue of a mouse.
After the PET measurement was finished, each of the mice was moved to a small animal X-CT (SHIMADZ Clairvivo CT) with a fixed stand while being anesthetized, and CT measurement was performed for ten minutes. A form image (X-CT image) obtained by the CT measurement was collected, a PET accumulated image 40 to 60 minutes after administration of [^18F]BCPP-EF was superimposed on the X-CT image, and a PET image of a cancer tissue was identified.
An interest region was set on the PET image of the cancer tissue, and a value normalized with a body weight of an individual and an administration radiation dose was used as an accumulation amount of [^18F]BCPP-EF in the cancer tissue. The results are illustrated in FIG. 4.

Row | affinity with respect to mitochondria Complex-1 ([1]; suggested from dose-response curve) | IC50 (concentration suppressing 50% of bonding between tracer and mitochondrial Complex-1), comparison in words ([1]; tracer dihydrorotenone[2-isopropyl-3H(N)], 22° C., 30 minutes) | accumulation in the tumor tissue (PET) as the irradiation dose was increased ([2]; X-ray 0, 6, 15, 30 Gy, FIGS. 3 and 4) | accumulation in the tumor tissue (PET) ([2]; before the radiation therapy, tail vein administration) | accumulation in the tumor tissue (PET) ([2]; two days after irradiation with radiation, PET image 40 to 60 minutes after administration) | Compound | increase in accumulation in proportion to the radiation dose, duration ([2]; seven days after irradiation with radiation, FIGS. 3 and 4)
1 | high affinity | lowest IC50 | – | – | – | CC(C)(C)n1ncc(OCc2ccc(OCCCCF)nc2)c(Cl)c1=O [BCPP-BF] | –
2 | – | – | increase in accumulation | not observed | increased | CC(C)(C)n1ncc(OCc2ccc(OCCOCC[18F])nc2)c(Cl)c1=O [[^18F]BCPP-EF] | continued until seven days after irradiation
